Measurements: patent US10676485B2, “Macrocyclic MCL-1 inhibitors and methods of use” (AbbVie Inc., priority 2017, dated 2020)
Read-outs that look alike come from different tables or passages of the source.

Experiments:
[1] = tested on: NCI-H929 human multiple myeloma tumor cell line; test: NCI-H929 cell viability assay (CellTiter-Glo); type: cell-based; conditions: NCI-H929, read-out: H929 Viability IC50 (μM), 10% FBS, 24 hours of compound treatment
Experimental: (§1) In one exemplary set of conditions, NCI-H929 or AMO-1 (ATCC. Manassas, Va.) were plated 4.000 cells per well in 384-well tissue culture plates (Corning. Corning, N.Y.) in a total volume of 25 μL RPMI tissue culture medium supplemented with 10% fetal bovine serum (Sigma-Aldrich, St. Louis, Mo.) and treated with a 3-fold serial dilution of the compounds of interest with a Labcyte Echo from a final concentration of 10 μM to 0.0005 μM. Each concentration was tested in duplicate at least 3 independent times. A luminescent signal proportional to the number of viable cells following 24 hours of compound treatment was determined using the CellTiter-Glo® Luminescent Cell Viability Assay according to the manufacturer's recommendations (Promega Corp., Madison, Wis.). The plates were read in a Perkin Elmer Envision using a Luminescence protocol. To generate dose response curves the data is normalized to percent viability by setting the averages of the staurosporine (10 uM) and DMSO only control wells to 0% and (00)% viability respectively. The IC50 values for the compounds are generated by fitting the normalized data with Accelrys Assay Explorer 3.3 to a sigmoidal curve model using linear regression.

[2] = tested on: AMO-1 human multiple myeloma tumor cell line; test: AMO-1 cell viability assay (CellTiter-Glo); type: cell-based; conditions: AMO1, read-out: AMO-1 Viability IC50 (μM), 10% FBS, 24 hours of compound treatment
Experimental: as §1

[3] = biological target: GST-MCL-1 (Homo sapiens (Human), UniProt Q07820); test: TR-FRET MCL-1 binding assay (competition with probe F-Bak)
Chain of GST-MCL-1 (Q07820 whole entry): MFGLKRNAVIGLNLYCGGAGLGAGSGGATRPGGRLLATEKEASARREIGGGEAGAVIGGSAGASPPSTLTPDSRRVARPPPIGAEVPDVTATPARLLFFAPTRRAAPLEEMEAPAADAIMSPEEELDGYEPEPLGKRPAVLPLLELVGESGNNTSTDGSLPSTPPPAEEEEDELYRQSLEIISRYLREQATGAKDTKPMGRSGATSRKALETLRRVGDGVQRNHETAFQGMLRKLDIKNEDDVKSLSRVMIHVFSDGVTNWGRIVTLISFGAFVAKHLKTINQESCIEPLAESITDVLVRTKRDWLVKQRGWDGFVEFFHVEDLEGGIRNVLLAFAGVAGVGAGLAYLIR
Summary of the method: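 Tested both in plain buffer and with 10% human serum. Top concentration 25 μM, 11 three-fold steps, 2 h room-temperature incubation of GST-MCL-1 with Tb-labelled anti-His antibody and F-Bak probe. Time-resolved FRET: 340 nm excitation, 520/525 and 495/510 nm emission.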

[4] = tested on: AMO-1 xenograft; test: AMO-1 xenograft model of multiple myeloma; type: in vivo; conditions: Mus musculus, AMO1, 25 mg/kg/day, IP, QDx1, SCID/bg mice; for change in vivo at 25 mg/kg: read-out: TGD (%); for inhibition in vivo at 25 mg/kg: read-out: TGImax (%)
Experimental: Tumors were size matched at approximately 200 mm^3. […] Tumor volume was estimated two to three times weekly. […] Mice were euthanized when tumor volume reached 3,000 mm3 or skin ulcerations occurred. Eight mice were housed per cage. Food and water were available ad libitum.
Tumor growth inhibition is calculated by 100*(1−Tv/Cv) where Tv and Cv are the mean tumor volumes of the treated and control groups, respectively.

[5] = read-out: MCL-1 Binding Ki (nM, 10% HS), in the presence of 10% HS
[6] = without HS, read-out: MCL-1 Binding Ki

Compound	IC50 [1]	IC50 [2]	Ki [3, 5]	Ki [3, 6]	change in vivo at 25 mg/kg [4]	inhibition in vivo at 25 mg/kg [4]
Cc1c(Cl)c2c(Cl)c(C)c1-c1c(-c3ccc(F)cc3)sc3ncnc(c13)O[C@@H](C(=O)O)Cc1cc(ccc1OCc1ccnc(-c3ccccc3OCC3COC(C)(C)O3)n1)OC[C@@H](CN1CCN(C)CC1)O2 (stereo in doubt) [Example 3, (7R,16R)-19,23-dichloro-10-{[2-(2-{[(4R)-2,2-dimethyl-1,3-dioxolan-4-yl]methoxy}phenyl)pyrimidin-4-yl]methoxy}-1-(4-fluorophenyl)-20,22-dimethyl-16-[(4-methylpiperazin-1-yl)methyl]-7,8,15,16-tetrahydro-18,21-etheno-13,9-(metheno)-6,14,17-trioxa-2-thia-3,5-diazacyclononadeca[1,2,3-cd]indene-7-carboxylic acid]	0.0037 µM	0.00026 µM	0.365 nM	0.033 nM	58%	75%
Cc1c(Cl)c2c(Cl)c(C)c1-c1c(-c3ccc(F)cc3)sc3ncnc(c13)O[C@@H](C(=O)O)Cc1cc(ccc1OCc1ccnc(-c3ccc(OC[C@@H]4COCCO4)cc3)n1)OC[C@@H](CN1CCN(C)CC1)O2 [Example 7, (7R,16R)-19,23-dichloro-10-{[2-(4-{[(2S)-1,4-dioxan-2-yl]methoxy}phenyl)pyrimidin-4-yl]methoxy}-1-(4-fluorophenyl)-20,22-dimethyl-16-[(4-methylpiperazin-1-yl)methyl]-7,8,15,16-tetrahydro-18,21-etheno-13,9-(metheno)-6,14,17-trioxa-2-thia-3,5-diazacyclononadeca[1,2,3-cd]indene-7-carboxylic acid]	0.000406 µM	0.000171 µM	0.92 nM	0.036 nM	477%	99%
Cc1c(Cl)c2c(Cl)c(C)c1-c1c(-c3ccc(F)cc3)sc3ncnc(c13)O[C@@H](C(=O)O)Cc1cc(ccc1OCc1ccnc(-c3ccc(OC[C@H]4COC(C)(C)O4)cc3)n1)OC[C@@H](CN1CCN(C)CC1)O2 [Example 1, (7R,16R)-19,23-dichloro-10-{[2-(4-{[(4S)-2,2-dimethyl-1,3-dioxolan-4-yl]methoxy}phenyl)pyrimidin-4-yl]methoxy}-1-(4-fluorophenyl)-20,22-dimethyl-16-[(4-methylpiperazin-1-yl)methyl]-7,8,15,16-tetrahydro-18,21-etheno-13,9-(metheno)-6,14,17-trioxa-2-thia-3,5-diazacyclononadeca[1,2,3-cd]indene-7-carboxylic acid]	0.00502 µM	0.00031 µM	0.582 nM	0.042 nM	133%	95%
